These results are taken from ChEMBL document CHEMBL5390277, “Development of N-Terminally Modified Variants of the CXCR4-Antagonistic Peptide EPI-X4 for Enhanced Plasma Stability” (J Med Chem, 2023).

SMILES strings stand for the structures. Square brackets hold non-standard residues; d marks the D form. Peptide text beside a SMILES is read from it.

Series [1] concerns the target T1, C-X-C chemokine receptor type 4 (Homo sapiens, UniProt P61073). In words: Displacement of 12G5 mAb from CXCR4 in human SUP-T1 cells incubated for 2 hrs by flow cytometry analysis. Type of series: cell-based.
The nature of series [2]: Toxicity in Zebrafish embryo incubated for 24 hrs by microscopic analysis. On the set-up: species or system Danio rerio. The conditions noted are these: in vivo.
Series [3] deals with SUP-T1. Put plainly: Inhibition of cell migration in human SUP-T1 cells assessed as inhibition of CXCL12 mediated cell migration incubated for 4 hrs in presence of chemoattractant, CXCL12 by Transwell based CellTiter-Glo-chemotaxis assay. The format is functional. On the technique in general: In ATP-based viability assays light output follows the ATP content of the culture.

The test system of series [4] is Human immunodeficiency virus 1. In words: Antiviral activity against HIV-1 NL4-3 infected in human TZM-bl cells assessed as inhibition of viral replication preincubated for 15 mins followed by viral infection and measured after 4320 mins by beta-gal screening assay. The format is functional, organism-based. The conditions noted are these: Human immunodeficiency virus 1, NL4-3, TZM.

Series [5] addresses T1, C-X-C chemokine receptor type 4. Put plainly: Antagonist activity at CXCR4 (unknown origin) expressed in human HEK293T cells co-expressing SmBiT-beta-arrestin2 preincubated with compound for 10 mins followed by CXCL12 stimulation and measured for 120 mins by beta-arrestin2 recruitment based NanoBiT assay. The format is functional, cell-based. (Recruitment of arrestin is a read-out of receptor activation apart from second messengers.)

Series [6] has the same target. In words: Antagonist activity at CXCR4 in human SUP-T1 cells assessed as inhibition of CXCL12-induced ERK phosphorylation preincubated with 15 mins followed by CXCL12 stimulation and measured after 12 mins by flow cytometry analysis. Type of series: functional, cell-based.

T1 sequence (P61073 whole entry): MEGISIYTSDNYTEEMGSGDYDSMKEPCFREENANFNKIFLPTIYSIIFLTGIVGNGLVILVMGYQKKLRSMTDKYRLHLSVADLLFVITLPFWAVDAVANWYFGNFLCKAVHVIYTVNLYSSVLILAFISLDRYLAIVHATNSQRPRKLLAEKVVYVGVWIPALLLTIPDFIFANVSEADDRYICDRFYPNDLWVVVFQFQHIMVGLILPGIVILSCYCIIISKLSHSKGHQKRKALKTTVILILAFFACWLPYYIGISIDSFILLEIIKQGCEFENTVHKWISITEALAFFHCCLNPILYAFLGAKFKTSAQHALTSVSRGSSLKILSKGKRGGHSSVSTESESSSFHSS

Usually IC50 stands for the point on the concentration scale where inhibition reaches its midpoint. Take `CSCC[C@H](NC(=O)[C@H](CCCCN)NC(=O)[C@H](CCCNC(=N)N)NC(=O)[C@H](CO)NC(=O)[C@H](Cc1c[nH]c2ccccc12)NC(=O)[C@H](CCCNC(=N)N)NC(=O)[C@H](CC(C)C)NC(=O)[C@H](N)CC(C)C)C(=O)N1CCC[C@H]1C(=O)N[C@@H](CS)C(=O)N[C@H](C(=O)N[C@@H](CO)C(=O)O)C(C)C` (H-[dL]LRWSRKMPCVS-OH): the IC50 was determined as 310 nM in series [1], 153 nM in series [4], 257 nM in series [5] and 3.66 µM in series [6]. The Activity result in series [2] is listed as “Non-Toxic”. Moreover, in series [3], the inhibition entry was “Dose-Dependent Effect”.

Regarding `CSCC[C@H](NC(=O)[C@H](CCCCN)NC(=O)[C@H](CCCNC(=N)N)NC(=O)[C@H](CO)NC(=O)[C@H](Cc1c[nH]c2ccccc12)NC(=O)[C@H](CCCNC(=N)N)NC(=O)[C@@H](CC(C)C)NC(=O)[C@@H](N)CCSC)C(=O)N1CCC[C@H]1C(=O)N[C@@H](CS)C(=O)N[C@H](C(=O)N[C@@H](CO)C(=O)O)C(C)C`, the IC50 in series [1] came to 824 nM.

For the compound `CSCC[C@H](NC(=O)[C@H](CCCCN)NC(=O)[C@H](CCCNC(=N)N)NC(=O)[C@H](CO)NC(=O)[C@H](Cc1c[nH]c2ccccc12)NC(=O)[C@H](CCCNC(=N)N)NC(=O)[C@H](CC(C)C)NC(=O)[C@H](N)Cc1ccccc1)C(=O)N1CCC[C@H]1C(=O)N[C@@H](CS)C(=O)N[C@H](C(=O)N[C@@H](CO)C(=O)O)C(C)C`, the concentration for half-maximal inhibition (IC50) is 1440 nM in series [1], 817 nM in series [4] and greater than 100 µM in series [6].

As to `CSCC[C@H](NC(=O)[C@@H](N)CCSC)C(=O)N[C@@H](CCCNC(=N)N)C(=O)N[C@@H](Cc1c[nH]c2ccccc12)C(=O)N[C@@H](CO)C(=O)N[C@@H](CCCNC(=N)N)C(=O)N[C@@H](CCCCN)C(=O)N[C@@H](CCSC)C(=O)N1CCC[C@H]1C(=O)N[C@@H](CS)C(=O)N[C@H](C(=O)N[C@@H](CO)C(=O)O)C(C)C` (H-MMRWSRKMPCVS-OH), the IC50 in series [1] came to 105 nM; in series [4] it was 129 nM; in series [6] it was 7.3 µM.

`CSCC[C@@H](NC(C)=O)C(=O)N[C@@H](CC(C)C)C(=O)N[C@@H](CCCNC(=N)N)C(=O)N[C@@H](Cc1c[nH]c2ccccc12)C(=O)N[C@@H](CO)C(=O)N[C@@H](CCCNC(=N)N)C(=O)N[C@@H](CCCCN)C(=O)N[C@@H](CC(C)C)C(=O)N1CCC[C@H]1C(=O)N[C@@H](CS)C(=O)N[C@H](C(=O)N[C@@H](CO)C(=O)O)C(C)C`: in series [4], the IC50 was greater than 10000 nM.

In the case of `CC[C@H](C)[C@H](N)C(=O)N[C@H](CC(C)C)C(=O)N[C@@H](CCCNC(=N)N)C(=O)N[C@@H](Cc1c[nH]c2ccccc12)C(=O)N[C@@H](CO)C(=O)N[C@@H](CCCNC(=N)N)C(=O)N[C@@H](CCCCN)C(=O)N[C@@H](CC(C)C)C(=O)N1CCC[C@H]1C(=O)N[C@@H](CS)C(=O)N[C@H](C(=O)N[C@@H](CO)C(=O)O)C(C)C`, the concentration for half-maximal inhibition (IC50) is 1730 nM in series [1], 436 nM in series [4] and greater than 100 µM in series [6].

As for `CC(C)C[C@H](NC(=O)[C@@H](NC(=O)[C@@H]1CCCN1C(=O)[C@@H](NC(=O)[C@H](CO)NC(=O)[C@@H](NC(=O)[C@H](CCC(N)=O)NC(=O)[C@@H]1CCCN1C(=O)[C@@H](NC(=O)[C@H](CCCCN)NC(=O)[C@H](CCCCN)NC(=O)[C@@H](NC(=O)[C@H](Cc1ccc(O)cc1)NC(=O)[C@H](CCCNC(=N)N)NC(=O)[C@@H](NC(=O)[C@@H](N)CC(C)C)C(C)C)[C@@H](C)O)C(C)C)C(C)C)[C@@H](C)O)[C@@H](C)O)C(=O)O` (H-LVRYTKKVPQVSTPTL-OH), the IC50 in series [1] is 2600 nM; in series [4] it was greater than 10000 nM; in series [6], greater than 100 µM.

`CSCC[C@H](NC(C)=O)C(=O)N[C@@H](CC(C)C)C(=O)N[C@@H](CCCNC(=N)N)C(=O)N[C@@H](Cc1c[nH]c2ccccc12)C(=O)N[C@@H](CO)C(=O)N[C@@H](CCCNC(=N)N)C(=O)N[C@@H](CCCCN)C(=O)N[C@@H](CC(C)C)C(=O)N1CCC[C@H]1C(=O)N[C@@H](CS)C(=O)N[C@H](C(=O)N[C@@H](CO)C(=O)O)C(C)C`: the IC50 in series [4] is greater than 10000 nM.

In the case of `CC(C)C[C@H](NC(=O)[C@H](N)C(C)C)C(=O)N[C@@H](CCCNC(=N)N)C(=O)N[C@@H](Cc1c[nH]c2ccccc12)C(=O)N[C@@H](CO)C(=O)N[C@@H](CCCNC(=N)N)C(=O)N[C@@H](CCCCN)C(=O)N[C@@H](CC(C)C)C(=O)N1CCC[C@H]1C(=O)N[C@@H](CS)C(=O)N[C@H](C(=O)N[C@@H](CO)C(=O)O)C(C)C`, the IC50 in series [1] is 921 nM; in series [4] it was 696 nM.

Turning to `CSCC[C@H](NC(=O)[C@H](N)Cc1ccccc1)C(=O)N[C@@H](CCCNC(=N)N)C(=O)N[C@@H](Cc1c[nH]c2ccccc12)C(=O)N[C@@H](CO)C(=O)N[C@@H](CCCNC(=N)N)C(=O)N[C@@H](CCCCN)C(=O)N[C@@H](CCSC)C(=O)N1CCC[C@H]1C(=O)N[C@@H](CS)C(=O)N[C@H](C(=O)N[C@@H](CO)C(=O)O)C(C)C`, the IC50 in series [1] is 1470 nM; in series [4], 1690 nM; in series [6], greater than 100 µM. In addition, the inhibition result in series [3] is “Dose-Dependent Effect”.

On to `CC[C@@H](C)[C@@H](NC(C)=O)C(=O)N[C@@H](CC(C)C)C(=O)N[C@@H](CCCNC(=N)N)C(=O)N[C@@H](Cc1c[nH]c2ccccc12)C(=O)N[C@@H](CO)C(=O)N[C@@H](CCCNC(=N)N)C(=O)N[C@@H](CCCCN)C(=O)N[C@@H](CC(C)C)C(=O)N1CCC[C@H]1C(=O)N[C@@H](CS)C(=O)N[C@H](C(=O)N[C@@H](CO)C(=O)O)C(C)C`, for which the IC50 in series [1] is 7720 nM; in series [4], greater than 10000 nM; in series [6], 17.2 µM.

With `CC[C@H](C)[C@H](N)C(=O)N[C@H](CC(C)C)C(=O)N[C@@H](CCCNC(=N)N)C(=O)N[C@@H](Cc1c[nH]c2ccccc12)C(=O)N[C@@H](CO)C(=O)N[C@@H](CCCNC(=N)N)C(=O)N[C@@H](CCCCN)C(=O)N[C@@H](CCSC)C(=O)N1CCC[C@H]1C(=O)N[C@@H](CS)C(=O)N[C@H](C(=O)N[C@@H](CO)C(=O)O)C(C)C`, the IC50 in series [1] was 991 nM; in series [4], 934 nM; in series [6] it was greater than 100 µM.

For the compound `CSCC[C@H](NC(=O)[C@H](N)CC(C)C)C(=O)N[C@@H](CCCNC(=N)N)C(=O)N[C@@H](Cc1c[nH]c2ccccc12)C(=O)N[C@@H](CO)C(=O)N[C@@H](CCCNC(=N)N)C(=O)N[C@@H](CCCCN)C(=O)N[C@@H](CCSC)C(=O)N1CCC[C@H]1C(=O)N[C@@H](CS)C(=O)N[C@H](C(=O)N[C@@H](CO)C(=O)O)C(C)C` (H-[dL]MRWSRKMPCVS-OH), in series [2], the Activity entry is reported as “Non-Toxic”. The inhibition result in series [3] is “Dose-Dependent Effect”.

As to `c1cc(CN2CCCNCCNCCCNCC2)ccc1CN1CCCNCCNCCCNCC1`, the inhibition result in series [3] was “Dose-Dependent Effect”. For the same compound, the half-inhibitory concentration (IC50) in series [4] came to 30 nM.

Regarding `CC[C@H](C)[C@H](NC(C)=O)C(=O)N[C@@H](CC(C)C)C(=O)N[C@@H](CCCNC(=N)N)C(=O)N[C@@H](Cc1c[nH]c2ccccc12)C(=O)N[C@@H](CO)C(=O)N[C@@H](CCCNC(=N)N)C(=O)N[C@@H](CCCCN)C(=O)N[C@@H](CC(C)C)C(=O)N1CCC[C@H]1C(=O)N[C@@H](CS)C(=O)N[C@H](C(=O)N[C@@H](CO)C(=O)O)C(C)C`, the IC50 in series [1] came to 2660 nM; in series [4] it was 1660 nM; in series [6], 42.1 µM.

As to `CSCC[C@H](NC(=O)[C@H](CCCCN)NC(=O)[C@H](CCCNC(=N)N)NC(=O)[C@H](CO)NC(=O)[C@H](Cc1c[nH]c2ccccc12)NC(=O)[C@H](CCCNC(=N)N)NC(=O)[C@H](CC(C)C)NC(=O)[C@H](CO)NC(C)=O)C(=O)N1CCC[C@H]1C(=O)N[C@@H](CS)C(=O)N[C@H](C(=O)N[C@@H](CO)C(=O)O)C(C)C`, the IC50 in series [1] was 16300 nM; in series [4] it was 4060 nM; in series [6] it was greater than 100 µM.

As for `CC(C)C[C@H](NC(=O)[C@@H](N)C(C)C)C(=O)N[C@@H](CCCNC(=N)N)C(=O)N[C@@H](Cc1c[nH]c2ccccc12)C(=O)N[C@@H](CO)C(=O)N[C@@H](CCCNC(=N)N)C(=O)N[C@@H](CCCCN)C(=O)N[C@@H](CC(C)C)C(=O)N1CCC[C@H]1C(=O)N[C@@H](CS)C(=O)N[C@H](C(=O)N[C@@H](CO)C(=O)O)C(C)C`, the IC50 is 298 nM in series [1], 214 nM in series [4] and 4.33 µM in series [6].

For `CSCC[C@H](NC(=O)CN)C(=O)N[C@@H](CCCNC(=N)N)C(=O)N[C@@H](Cc1c[nH]c2ccccc12)C(=O)N[C@@H](CO)C(=O)N[C@@H](CCCNC(=N)N)C(=O)N[C@@H](CCCCN)C(=O)N[C@@H](CCSC)C(=O)N1CCC[C@H]1C(=O)N[C@@H](CS)C(=O)N[C@H](C(=O)N[C@@H](CO)C(=O)O)C(C)C` (H-GMRWSRKMPCVS-OH), the IC50 was 8730 nM in series [1], 6670 nM in series [4] and greater than 100 µM in series [6].

As to `CSCC[C@H](NC(=O)[C@H](CCCCN)NC(=O)[C@H](CCCNC(=N)N)NC(=O)[C@H](CO)NC(=O)[C@H](Cc1c[nH]c2ccccc12)NC(=O)[C@H](CCCNC(=N)N)NC(=O)[C@H](CC(C)C)NC(=O)[C@@H](CO)NC(C)=O)C(=O)N1CCC[C@H]1C(=O)N[C@@H](CS)C(=O)N[C@H](C(=O)N[C@@H](CO)C(=O)O)C(C)C`, the IC50 in series [1] is 8620 nM; in series [4], 775 nM; in series [6], greater than 100 µM.

On to `CC[C@@H](C)[C@@H](N)C(=O)N[C@@H](CC(C)C)C(=O)N[C@@H](CCCNC(=N)N)C(=O)N[C@@H](Cc1c[nH]c2ccccc12)C(=O)N[C@@H](CO)C(=O)N[C@@H](CCCNC(=N)N)C(=O)N[C@@H](CCCCN)C(=O)N[C@@H](CC(C)C)C(=O)N1CCC[C@H]1C(N)=O` (H-[dI]LRWSRKLP-NH2), for which the IC50 in series [1] was 453 nM; in series [4], 551 nM; in series [5], 118 nM; in series [6], 4.54 µM. Also, the Activity entry in series [2] is “Non-Toxic”. Further, the inhibition entry in series [3] is “Dose-Dependent Effect”.
